The values below come from PubChem BioAssay (NCI).

Each structure is given as a SMILES string. “And” between values parts separate entries of the source, which are not always exact repeats. Identical values can stand only once.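 Exposure lasted 48 hours, with cells grown in 96-well plates and compounds tested at five concentrations. The concentration for 50% growth inhibition is given as GI50. Definition used: TGI = concentration required for complete inhibition of growth.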

Test systems include NCI-H460 lung; T-47D breast; UACC-257 melanoma; KM12 colon; LOX IMVI melanoma; RXF 393 renal; MALME-3M melanoma; SK-OV-3 ovarian; HL-60(TB) leukemia; MDA-MB-231 breast.
Holding throughout (assay): growth of human tumour cells (NCI), 48 h

Regarding `NC1=NCCN1CC(=O)O`, the GI50 with NCI-H460 lung, in the experiment on T-47D breast, in the experiment with UACC-257 melanoma, in the experiment on LOX IMVI melanoma, in the experiment with RXF 393 renal and with SK-OV-3 ovarian was more than 10000 µM in each case. Also, in the experiment with MDA-MB-231 breast, the GI50 is more than 10000 µM. The TGI in the experiment with NCI-H460 lung, in the experiment with T-47D breast, in the experiment with UACC-257 melanoma, in the experiment with KM12 colon, in the experiment on LOX IMVI melanoma and in the experiment on RXF 393 renal was more than 10000 µM throughout. The TGI with MALME-3M melanoma was more than 1000 µM; with SK-OV-3 ovarian, more than 10000 µM; in the experiment with HL-60(TB) leukemia, more than 1000 µM; in the experiment on MDA-MB-231 breast, more than 10000 µM.

For the compound `CCCCCCCCCCCCCCCCOP(=O)(O)OP(=O)(O)OCC1OC(n2ccc(N)nc2=O)C(O)C1O` (configuration not stated), the TGI in the experiment with NCI-H460 lung, in the experiment on T-47D breast, in the experiment with UACC-257 melanoma, in the experiment with KM12 colon, in the experiment with LOX IMVI melanoma and in the experiment on RXF 393 renal was more than 100 µM each time. Further, the TGI in the experiment on MALME-3M melanoma, in the experiment on SK-OV-3 ovarian, in the experiment with HL-60(TB) leukemia and in the experiment with MDA-MB-231 breast was more than 100 µM each time. Moreover, the GI50 with LOX IMVI melanoma was > 100 µM and 28.3 µM; in the experiment with MALME-3M melanoma it was > 100 µM and 46.7 µM; in the experiment with SK-OV-3 ovarian, > 100 µM and 48.7 µM.

As for `C=CN(C)S(C)(=O)=O`, the GI50 with NCI-H460 lung, in the experiment on T-47D breast, in the experiment on UACC-257 melanoma, with KM12 colon, in the experiment on LOX IMVI melanoma and in the experiment with RXF 393 renal was more than 100 µM each time. Besides, the GI50 with MALME-3M melanoma, in the experiment with SK-OV-3 ovarian, in the experiment with HL-60(TB) leukemia and with MDA-MB-231 breast was more than 100 µM each time. The TGI in the experiment on NCI-H460 lung, in the experiment with T-47D breast, in the experiment on UACC-257 melanoma, in the experiment with KM12 colon, with LOX IMVI melanoma and in the experiment on RXF 393 renal was more than 100 µM throughout. Besides, the TGI in the experiment with MALME-3M melanoma, in the experiment with SK-OV-3 ovarian, in the experiment on HL-60(TB) leukemia and in the experiment with MDA-MB-231 breast was more than 100 µM throughout.

Take `COc1cc(-c2ncn(/C=C\C(=O)OC(C)C)n2)cc(C(F)(F)F)c1`: the GI50 in the experiment with NCI-H460 lung was 0.0293 µM and 0.0327 µM; with T-47D breast it was 0.12 µM and 0.0666 µM; in the experiment on UACC-257 melanoma, 0.142 µM and 0.136 µM; in the experiment with KM12 colon it was 0.368 µM and 0.309 µM; in the experiment on LOX IMVI melanoma, 0.0271 µM and 0.0287 µM; with RXF 393 renal it was < 0.0139 µM and 0.0146 µM. In addition, the GI50 in the experiment with MALME-3M melanoma is 0.149 µM and 0.147 µM; in the experiment with SK-OV-3 ovarian it was 0.357 µM and 0.179 µM; in the experiment on HL-60(TB) leukemia it was 0.0515 µM and 0.051 µM; in the experiment with MDA-MB-231 breast, 0.065 µM and 0.0398 µM. Moreover, the TGI with NCI-H460 lung was 11.1 µM and 1.4 µM; in the experiment on T-47D breast it was 15 µM and 12 µM; in the experiment with UACC-257 melanoma, 11.8 µM and 14.4 µM; in the experiment on KM12 colon, 12.2 µM and 4.32 µM; with LOX IMVI melanoma, 0.39 µM and 0.524 µM; in the experiment with RXF 393 renal, 0.0824 µM and 0.0725 µM. The TGI with MALME-3M melanoma is 12.9 µM and 15.3 µM; in the experiment on SK-OV-3 ovarian it was 16.9 µM and 15.1 µM; in the experiment with HL-60(TB) leukemia, 4.58 µM and 4.07 µM; in the experiment with MDA-MB-231 breast, 4.81 µM and 7.12 µM.

Consider `O=C(NCc1ccncc1)C12CC3CC(C1)CC(c1ccc(Cl)cc1)(C3)C2`, for which the GI50 with NCI-H460 lung was 14.8 µM; in the experiment on T-47D breast it was 6.88 µM; in the experiment with UACC-257 melanoma it was 12.4 µM; in the experiment with KM12 colon it was 13.6 µM; with LOX IMVI melanoma, 15 µM; in the experiment with RXF 393 renal, 10.7 µM. The GI50 in the experiment with MALME-3M melanoma is 13.3 µM; in the experiment on SK-OV-3 ovarian, 12.5 µM; in the experiment on HL-60(TB) leukemia, 5.58 µM; in the experiment on MDA-MB-231 breast, 12 µM. In addition, the TGI amounted to 28.6 µM in the experiment on NCI-H460 lung; 27.5 µM with T-47D breast; 25.1 µM with UACC-257 melanoma; 27.8 µM in the experiment with KM12 colon; 30.1 µM in the experiment with LOX IMVI melanoma; 23.6 µM in the experiment with RXF 393 renal. The TGI in the experiment with MALME-3M melanoma amounted to 27.4 µM; in the experiment with SK-OV-3 ovarian, 25.2 µM; with HL-60(TB) leukemia, 27.1 µM; in the experiment with MDA-MB-231 breast, 26.2 µM.

With `CCc1ccc2c(c1)N(CCO)C1=C(C(=O)OC1)C2c1cccc(Cl)c1` (configuration not stated), the GI50 was 0.393 µM with NCI-H460 lung; 0.583 µM in the experiment on T-47D breast; 0.772 µM with UACC-257 melanoma; 0.433 µM with KM12 colon; 0.684 µM with LOX IMVI melanoma; 0.378 µM in the experiment on RXF 393 renal. Moreover, the GI50 was 2.82 µM in the experiment on MALME-3M melanoma, 0.663 µM with SK-OV-3 ovarian, 0.482 µM with HL-60(TB) leukemia and 1.66 µM with MDA-MB-231 breast. Further, the TGI in the experiment on NCI-H460 lung turned out to be 12.5 µM; in the experiment on T-47D breast, 26.4 µM; in the experiment on UACC-257 melanoma, 23.6 µM; in the experiment on KM12 colon, 12.6 µM; in the experiment with LOX IMVI melanoma, 17.7 µM; in the experiment with RXF 393 renal, 3.57 µM. Besides, the TGI with MALME-3M melanoma turned out to be 27.4 µM; in the experiment on SK-OV-3 ovarian, 10.7 µM; in the experiment with HL-60(TB) leukemia, 8.82 µM; in the experiment with MDA-MB-231 breast it was 15.3 µM.

As for `S=C(N/N=C(/c1ccccc1)c1ccccn1)N1CCCCCC1`, the GI50 in the experiment on NCI-H460 lung was 0.00355 µM; with T-47D breast, less than 0.001 µM; in the experiment with KM12 colon, 0.0105 µM; in the experiment with LOX IMVI melanoma it was 0.00892 µM and 0.0583 µM; in the experiment with MALME-3M melanoma it was 0.0392 µM; in the experiment with SK-OV-3 ovarian, 0.00173 µM. In addition, the GI50 in the experiment with HL-60(TB) leukemia and with MDA-MB-231 breast was less than 0.001 µM throughout. Also, the TGI in the experiment with NCI-H460 lung was 1.58 µM and 1.89 µM; in the experiment with UACC-257 melanoma it was 0.709 µM; in the experiment on KM12 colon, 1.57 µM and 1.5 µM; in the experiment with LOX IMVI melanoma, 1.79 µM and 1.27 µM; in the experiment with RXF 393 renal, 1.63 µM and 2.32 µM; in the experiment on MALME-3M melanoma, 1.96 µM and 2.01 µM. For the same compound, the TGI was 2.5 µM and 1.31 µM in the experiment with SK-OV-3 ovarian; 4.13 µM in the experiment with HL-60(TB) leukemia; 1.87 µM and 1.83 µM with MDA-MB-231 breast.

Turning to `CCCCN(CCCC)CCCn1c(=O)c2c3ccccc3n(C)c2n2nnc(-c3ccccc3)c12`, the GI50 in the experiment on NCI-H460 lung is 41.2 µM; in the experiment with T-47D breast, 54.6 µM; with UACC-257 melanoma, 28.7 µM; in the experiment with KM12 colon, 34.3 µM; in the experiment on LOX IMVI melanoma it was 28.4 µM; in the experiment on RXF 393 renal, 14.1 µM. Further, the GI50 with MALME-3M melanoma was 28.4 µM; with SK-OV-3 ovarian it was 30.3 µM; in the experiment on HL-60(TB) leukemia it was 2.54 µM; in the experiment with MDA-MB-231 breast, 36.6 µM. In addition, the TGI with NCI-H460 lung was more than 100 µM; in the experiment on T-47D breast, more than 100 µM; in the experiment with UACC-257 melanoma it was 82.5 µM; in the experiment with KM12 colon, more than 100 µM; in the experiment with LOX IMVI melanoma, more than 100 µM; in the experiment with RXF 393 renal, 43 µM. The TGI was 90 µM with MALME-3M melanoma, more than 100 µM in the experiment with SK-OV-3 ovarian, 41.7 µM in the experiment with HL-60(TB) leukemia and more than 100 µM in the experiment on MDA-MB-231 breast.
